Each structure is given as a SMILES string.

System in one data set: not listed separately
Briefly: pKa was determined.
Conditions: not given
In kind it is physicochemical.
As for `CC(C)(N)C(=O)N[C@H](Cc1c[nH]c2ccccc12)C(=O)N1CCC2(CCc3ccccc32)CC1` [L-162752], the pKa worked out at 7.9.

In the case of `NC1(C(=O)N[C@H](Cc2c[nH]c3ccccc23)C(=O)N2CCC3(CCc4ccccc43)CC2)CC1`, the pKa is 5.9.

Another data set is filed under the species Rattus norvegicus. Briefly: In vitro for growth hormone release by using rat pituitary cell assay. In kind it is functional. To be noted: Pituitary gland cell.
Take `O=C(N[C@H](Cc1c[nH]c2ccccc12)C(=O)N1CCC2(CCc3ccccc32)CC1)C1CCCCN1` (stereo partly specified): it took 1900 nM to reach a half-maximal effect (EC50). In other words, the single-digit micromolar range. On the same count and under the same terms, under `C[C@H](O)CNC(C)(C)CC(=O)N[C@H](Cc1c[nH]c2ccccc12)C(=O)N1CCC2(CCc3ccccc32)CC1` stands 2.6 nM; under `CC(C)(N)C(=O)N[C@H](Cc1c[nH]c2ccccc12)C(=O)N1CCC2(CCc3ccccc32)CC1` [L-162752], 14 nM. Same read-out and setting: the figure for `CC(C)(CC(=O)N[C@H](Cc1c[nH]c2ccccc12)C(=O)N1CCC2(CCc3ccccc32)CC1)NC[C@H](O)CO` is 16 nM. `CC(C)(N)CC(=O)N[C@H](Cc1c[nH]c2ccccc12)C(=O)N1CCC2(CCc3ccccc32)CC1` came in with an EC50 of 76 nM. Same read-out and setting: the figure for `C[C@](N)(CO)C(=O)N[C@H](Cc1c[nH]c2ccccc12)C(=O)N1CCC2(CCc3ccccc32)CC1` is 600 nM; for `O=C(N[C@H](Cc1c[nH]c2ccccc12)C(=O)N1CCC2(CCc3ccccc32)CC1)C1CCNCC1` it is 100 nM. Same read-out and setting: under `O=C(NC(Cc1c[nH]c2ccccc12)C(=O)N1CCC2(CCc3ccccc32)CC1)NC1CN2CCC1CC2` (stereo unspecified) [SPIROPIPERIDINE] stands 50 nM. Compound `C[C@@H](N)C(=O)N[C@H](Cc1c[nH]c2ccccc12)C(=O)N1CCC2(CCc3ccccc32)CC1` returned an EC50 of 1000 nM. Compared with the last compound, the EC50 is about 20-fold higher. `CC(C)(N)C(=O)N[C@@H](Cc1c[nH]c2ccccc12)C(=O)N1CCC2(CCc3ccccc32)CC1` returned an EC50 of 10000 nM.

On to `NC1(C(=O)N[C@H](Cc2c[nH]c3ccccc23)C(=O)N2CCC3(CCc4ccccc43)CC2)CC1`, for which the 50% effective concentration (EC50) worked out at 2100 nM. In turn, `C[C@@](N)(CO)C(=O)N[C@H](Cc1c[nH]c2ccccc12)C(=O)N1CCC2(CCc3ccccc32)CC1` yielded a 50% effective concentration (EC50) of 48 nM. `CC(C)(N)CC(=O)N[C@@H]1CCc2ccccc2N(Cc2ccc(-c3ccccc3-c3nn[nH]n3)cc2)C1=O` gave an EC50 of 60 nM. `C[C@H](N)C(=O)N[C@H](Cc1c[nH]c2ccccc12)C(=O)N1CCC2(CCc3ccccc32)CC1` showed an EC50 of 840 nM.

`C[C@H](O)CNC(C)(C)C(=O)N[C@H](Cc1c[nH]c2ccccc12)C(=O)N1CCC2(CCc3ccccc32)CC1` came in with an EC50 of 700 nM. In the case of `NC1(C(=O)N[C@H](Cc2c[nH]c3ccccc23)C(=O)N2CCC3(CCc4ccccc43)CC2)CCCC1`, the EC50 worked out at 2600 nM. Same read-out and setting: under `O=C(N[C@H](Cc1c[nH]c2ccccc12)C(=O)N1CCC2(CCc3ccccc32)CC1)C1CCCNC1` (stereo partly specified) stands 90 nM. Still for that read-out and setting: under `NCC(=O)N[C@H](Cc1c[nH]c2ccccc12)C(=O)N1CCC2(CCc3ccccc32)CC1` stands 2000 nM.

Another data set is filed under the species Rattus norvegicus. Briefly: Compound was tested in vitro for growth hormone release by using rat pituitary cell assay. It is filed as functional, Pituitary gland cell.
Conditions: not given
Regarding `NC1(C(=O)N[C@H](Cc2c[nH]c3ccccc23)C(=O)N2CCC3(CCc4ccccc43)CC2)CCCCC1`, the Stimulation stood at 92%.

For the origin of these results see ChEMBL document CHEMBL1129162, “Analogs of the orally active growth hormone secretagogue L-162,752” (Bioorg Med Chem Lett, 1996).
